Target: Tyrosine-protein kinase JAK2 (Homo sapiens, UniProt O60674)
Test: Binding affinity to wild type JAK2 JH2 domain (unknown origin) by competitive fluorescence polarization assay

Chain of Tyrosine-protein kinase JAK2 (O60674 whole entry, the tested form may be a part): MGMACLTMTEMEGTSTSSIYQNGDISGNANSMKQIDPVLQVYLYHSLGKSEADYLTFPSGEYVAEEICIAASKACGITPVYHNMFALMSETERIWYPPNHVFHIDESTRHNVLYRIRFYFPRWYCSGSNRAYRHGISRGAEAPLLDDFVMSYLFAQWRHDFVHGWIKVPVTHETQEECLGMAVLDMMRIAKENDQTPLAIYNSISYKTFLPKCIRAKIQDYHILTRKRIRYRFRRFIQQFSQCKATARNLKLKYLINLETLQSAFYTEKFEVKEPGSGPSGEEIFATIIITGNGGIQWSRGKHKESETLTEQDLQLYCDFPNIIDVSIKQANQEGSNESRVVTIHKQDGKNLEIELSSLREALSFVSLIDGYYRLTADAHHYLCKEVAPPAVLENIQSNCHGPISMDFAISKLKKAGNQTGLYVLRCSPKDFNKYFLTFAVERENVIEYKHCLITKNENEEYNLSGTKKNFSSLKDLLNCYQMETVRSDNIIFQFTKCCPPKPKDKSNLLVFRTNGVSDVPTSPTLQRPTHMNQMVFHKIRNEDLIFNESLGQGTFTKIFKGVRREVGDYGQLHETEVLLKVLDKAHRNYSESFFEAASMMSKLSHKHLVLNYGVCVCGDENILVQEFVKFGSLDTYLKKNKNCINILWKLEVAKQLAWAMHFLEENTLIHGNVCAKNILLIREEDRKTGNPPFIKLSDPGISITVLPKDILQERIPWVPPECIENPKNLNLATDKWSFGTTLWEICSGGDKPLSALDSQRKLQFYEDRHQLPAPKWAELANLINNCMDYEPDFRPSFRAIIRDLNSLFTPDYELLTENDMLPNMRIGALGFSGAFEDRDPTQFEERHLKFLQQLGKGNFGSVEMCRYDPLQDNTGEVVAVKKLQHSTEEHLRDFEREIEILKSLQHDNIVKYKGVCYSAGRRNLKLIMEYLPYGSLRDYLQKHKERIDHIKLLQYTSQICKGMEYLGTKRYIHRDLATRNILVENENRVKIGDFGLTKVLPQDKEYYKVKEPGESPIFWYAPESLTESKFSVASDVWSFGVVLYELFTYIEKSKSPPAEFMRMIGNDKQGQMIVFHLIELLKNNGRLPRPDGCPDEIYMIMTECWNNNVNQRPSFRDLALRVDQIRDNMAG

Kd | SMILES
7 µM | Cc1cc(C)n2c1C=C1C=CC(CCC(=O)NCCNC(=O)O[C@H]3[C@@H](O)[C@H](n4cnc5c(N)ncnc54)O[C@@H]3COP(=O)(O)OP(=O)(O)OP(=O)(O)O)=[N+]1[B-]2(F)F
0.205 µM | CN(Cc1ccc(Nc2nc(N)n(C(=O)c3c(F)cccc3F)n2)cc1)C(=S)Nc1ccc2c(c1)C(=O)OC21c2ccc(O)cc2Oc2cc(O)ccc21
122 µM | N#Cc1ccc(Nc2nc(N)nc(-c3ccc(CO)o3)n2)cc1
0.227 µM | Nc1nc(Nc2ccc(C(=O)NCCCCCNC(=S)Nc3ccc4c(c3)C(=O)OC43c4ccc(O)cc4Oc4cc(O)ccc43)cc2)nn1C(=O)c1c(F)cccc1F
57.3 µM | N#Cc1ccc(Nc2nc(N)cc(-n3ccc(CO)n3)n2)cc1
106 µM | CS(=O)(=O)NCc1cn(-c2nc(N)nc(Nc3ccc(C#N)cc3)n2)nn1
